Assay results reported in patent US12600721B2, “TYK2 inhibitors and uses thereof” (Sudo Biosciences Limited, priority 2021, dated 2026).
pIC50: −log10 of the molar value.

Legend:
TYK2 Pseudokinase (JH2) [1] = assay: HEK-Blue IL-23 reporter assay (SEAP) for profiling TYK2 pseudokinase (JH2) inhibition; assay type: cell-based; details: HEK-Blue IL-23 cells, 10 ng/mL human recombinant IL-23, SEAP reporter; read-out: IL23 IC50 (TYK2 inhibitory activity)
Experimental: (§1) HEK-Blue™ IL-23 and IFNα/β cells with a stably-integrated cytokine receptor and STAT3 or STAT1 express STAT-inducible secreted embryonic alkaline phosphatase (SEAP) reporter gene upon cytokine stimulation. These cells are plated in DMEM (Gibco) containing 10% heat-inactivated FBS (Gibco) and 100 U/mL PenStrep (Gibco) at 37° C. under 5% CO2 conditions for 20-22 hours. The cells are then pretreated with serially diluted test compounds for 60 min prior to stimulation with either 10 ng/mL human recombinant IL-23 (Miltenyl Biotech) or 1 ng/mL human recombinant IFNα (InvivoGen) for 22-24 hours for IL-23 or 16-18 h for IFNα. SEAP induction is measured using the QUANTI Blue™ Solution (InvivoGen) according to the manufacturer's instructions.

TYK2 Pseudokinase (JH2) [2] = assay: HEK-Blue IFNα/β reporter assay (SEAP) for profiling TYK2 pseudokinase (JH2) inhibition; assay type: cell-based; details: HEK-Blue IFNα/β cells, 1 ng/mL human recombinant IFNα, read-out: IFNα IC50 (TYK2 inhibitory activity)
Experimental: as §1

TYK2-JH1 = molecular target: T1, TYK2-JH1 (Homo sapiens, UniProt P29597); assay: HTRF-based selectivity assay, TYK2 catalytic domain; assay type: biochemical; details: kinase domain (JH1), 20 μM ATP
T1 construct: using a recombinant purified His or GST-tagged catalytic domain for each enzyme; made in house
T1 sequence (P29597 897-1176 limits assumed): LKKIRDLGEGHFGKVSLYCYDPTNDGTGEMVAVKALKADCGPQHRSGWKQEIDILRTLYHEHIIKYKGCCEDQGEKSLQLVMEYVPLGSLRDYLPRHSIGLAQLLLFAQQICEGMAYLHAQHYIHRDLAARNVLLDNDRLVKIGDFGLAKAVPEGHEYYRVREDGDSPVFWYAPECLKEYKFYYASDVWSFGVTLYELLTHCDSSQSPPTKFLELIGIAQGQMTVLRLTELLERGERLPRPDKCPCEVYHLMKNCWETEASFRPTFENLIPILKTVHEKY
Experimental: (§2) The ability of compounds to inhibit the activity of JAK1, JAK2, JAK3 and TYK2 is measured using a recombinant purified His or GST-tagged catalytic domain for each enzyme (JAK1, JAK2 and TYK2 are generated in-house; JAK3 was purchased from Carna biosciences, Cat #08-046) in an HTRF format biochemical assay. The reactions employs a commercial peptide substrate from Cisbio (Cat #62TK0PEC). The basic assay protocol is as follows: first, 2.5 μL of diluted compounds (4×) in DMSO are dispensed into a 384-well Optiplate. Next, 2.5 μL of enzyme (final concentrations for enzymes are: TYK2-700 ng/mL, JAK1-80.6 ng/ml, JAK2-2.1 ng/ml and JAK3-171.8 ng/mL) is added and incubated at RT for 5-20 min. Finally, 5 μl of mixture of 2×ATP [Final concentration 20 μM for TYK2, 21.43 μM for JAK1, 14.7 μM for JAK2 and 2.12 μM for JAK3]+2× Substrate [Final concentration 217 nM for TYK2, 454.7 nM for JAK1, 200 nM for JAK2 and 257.4 nM for JAK3] is added to 384 well Optiplate. Composition of Kinase assay buffer used in the assay is as follows: HEPES 50 mM, EGTA 1 mM, MgCl2 10 mM, DTT 2 mM, Tween-20 0.01% and water. Then the plates are shaken and then incubated at 26.5° C. for 60 min.

JAK1-JH1 = molecular target: T2, JAK1-JH1 (Homo sapiens, UniProt P23458); assay: HTRF-based selectivity assay, JAK1 catalytic domain; assay type: biochemical; details: kinase domain (JH1), 21.43 μM ATP
T2 construct: using a recombinant purified His or GST-tagged catalytic domain for each enzyme; made in house
Experimental: as §2

JAK2-JH1 = molecular target: T3, JAK2-JH1 (Homo sapiens, UniProt O60674); assay: HTRF-based selectivity assay, JAK2 catalytic domain; assay type: biochemical; details: kinase domain (JH1), 14.7 μM ATP
T3 construct: using a recombinant purified His or GST-tagged catalytic domain for each enzyme; made in house
Experimental: as §2

JAK3-JH1 = molecular target: T4, JAK3-JH1 (Homo sapiens, UniProt P52333); assay: HTRF-based selectivity assay, JAK3 catalytic domain; assay type: biochemical; details: kinase domain (JH1), 2.12 μM ATP
T4 construct: using a recombinant purified His or GST-tagged catalytic domain for each enzyme; purchased Carna biosciences 08-046
Experimental: as §2

[3] = system: HEK-Blue IL-2 reporter cells; assay: HEK-Blue IL-2 reporter assay (SEAP) for determining selectivity; assay type: cell-based; details: HEK-Blue IL-2 cells, 4 ng/ml human recombinant IL-2, SEAP reporter
Experimental: (§3) HEK-Blue™ IL-2 and IFNγ reporter cells with a stably-integrated cytokine receptor and STAT5 or STAT1 express STAT-inducible secreted embryonic alkaline phosphatase (SEAP) reporter gene upon cytokine stimulation. These cells were plated in DMEM (Gibco) containing 10% heat-inactivated FBS (Gibco) and 100 U/mL PenStrep (Gibco) at 37° C. under 5% CO2 conditions for 20-22 hours. The cells were then pretreated with serially diluted test compounds for 60 min prior to stimulation with either 4 ng/ml human recombinant IL-2 (Miltenyl Biotech) or 50 ng/ml human recombinant IFNγ (InvivoGen) for 24 hours. SEAP induction was measured using the QUANTI-Blue™ Solution (InvivoGen) according to the manufacturer's instructions.

[4] = system: HEK-Blue IFNγ reporter cells; assay: HEK-Blue IFNγ reporter assay (SEAP) for determining selectivity; assay type: cell-based; details: 50 ng/ml human recombinant IFNγ, read-out: IFN-γ IC50 (SEAP selectivity)
Experimental: as §3

T3 sequence (O60674 849-1124 limits assumed): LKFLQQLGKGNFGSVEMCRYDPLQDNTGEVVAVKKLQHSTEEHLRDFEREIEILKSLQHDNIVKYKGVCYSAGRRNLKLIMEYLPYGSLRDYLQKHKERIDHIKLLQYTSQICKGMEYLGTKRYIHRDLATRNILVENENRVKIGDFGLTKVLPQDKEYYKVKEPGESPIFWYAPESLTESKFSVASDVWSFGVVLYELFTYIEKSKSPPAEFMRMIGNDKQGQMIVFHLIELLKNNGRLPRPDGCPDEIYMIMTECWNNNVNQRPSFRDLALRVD
T4 sequence (P52333 822-1111 limits assumed): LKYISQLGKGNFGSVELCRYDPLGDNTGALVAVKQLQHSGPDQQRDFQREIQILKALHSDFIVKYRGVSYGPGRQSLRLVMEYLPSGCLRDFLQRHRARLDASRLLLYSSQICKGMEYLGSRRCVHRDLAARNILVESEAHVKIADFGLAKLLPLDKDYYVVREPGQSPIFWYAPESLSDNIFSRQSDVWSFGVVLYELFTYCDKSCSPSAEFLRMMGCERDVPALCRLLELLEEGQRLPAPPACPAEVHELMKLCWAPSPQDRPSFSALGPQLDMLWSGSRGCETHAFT
T2 sequence (P23458 875-1153 limits assumed): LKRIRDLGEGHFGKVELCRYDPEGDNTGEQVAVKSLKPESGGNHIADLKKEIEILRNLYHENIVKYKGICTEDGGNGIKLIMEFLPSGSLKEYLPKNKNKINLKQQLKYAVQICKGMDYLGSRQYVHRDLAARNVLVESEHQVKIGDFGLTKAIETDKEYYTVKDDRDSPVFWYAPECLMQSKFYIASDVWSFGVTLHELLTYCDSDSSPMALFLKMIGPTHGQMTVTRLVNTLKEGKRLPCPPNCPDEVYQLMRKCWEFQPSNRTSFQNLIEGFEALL

pIC50 (TYK2 Pseudokinase (JH2) [1]) | pIC50 (TYK2 Pseudokinase (JH2) [2]) | pIC50 (TYK2-JH1) | pIC50 (JAK1-JH1) | pIC50 (JAK2-JH1) | pIC50 (JAK3-JH1) | SMILES | pIC50 [3] | pIC50 [4]
> 7.52 | > 7.52 | < 6.00 | < 6.00 | < 6.00 | < 6.00 | [2H]C([2H])([2H])NC(=O)c1nnc(NC(=O)C2CC2)cc1Nc1cccc2c1N(C)Cc1cnn(C)c(=O)c1-2 [Compound 27, 6-(cyclopropanecarboxamido)-4-((2,6-dimethyl-1-oxo-1,2,5,6-tetrahydropyridazino[4,5-c]quinolin-7-yl)amino)-N-(methyl-d3)pyridazine-3-carboxamide] | 6.00 to 6.52 | 6.52 to 7.52
> 7.52 | > 7.52 | < 6.00 | < 6.00 | < 6.00 | < 6.00 | [2H]C([2H])([2H])NC(=O)c1cnc(NC(=O)C2CC2)cc1Nc1cccc2c1N(C)Cc1cnn(C)c(=O)c1-2 [Compound 28, 6-(cyclopropanecarboxamido)-4-((2,6-dimethyl-1-oxo-1,2,5,6-tetrahydropyridazino[4,5-c]quinolin-7-yl)amino)-N-(methyl-d3)nicotinamide] | < 6.00 | 6.52 to 7.52
